Laboratory results reported in ChEMBL document CHEMBL5338727, “From (Tool)Bench to Bedside: The Potential of Necroptosis Inhibitors” (J Med Chem, 2023).
Where “and” joins values, the source holds several entries; their conditions need not be identical. Equal entries are not always repeated. Each block holds one compound with its values, some of them ahead of it.

What was measured:
[1] = biological target: Receptor-interacting serine/threonine-protein kinase 2 (Homo sapiens) (UniProt O43353); test: Inhibition of RIPK2 (unknown origin) at 1 uM relative to control
[2] = Anti-necroptotic activity in mouse dermal fibroblast assessed as inhibition in T/S/Q induced necroptosis measured by flow cytometry; type: functional, cell-based
[3] = test system: Jurkat; test: Anti-necroptotic activity in FADD-deficient human Jurkat cells assessed as reduction in cell growth preincubated for 30 mins followed by TNFalpha stimulation incubated overnight by CellTiter-Glo assay; type: functional, cell-based
[4] = biological target: Voltage-gated inwardly rectifying potassium channel KCNH2 (Homo sapiens, UniProt Q12809); test: Inhibition of hERG at 10 uM; type: toxicity
[5] = Clearance in ICR mouse at 2 mg/kg, iv; type: ADME, organism-based; details: in vivo
[6] = biological target: T1, CYP1A2 (Homo sapiens, UniProt P05177); test: Inhibition of CYP1A2 (unknown origin) at 10 uM; type: ADME
T1 sequence (P05177 whole entry): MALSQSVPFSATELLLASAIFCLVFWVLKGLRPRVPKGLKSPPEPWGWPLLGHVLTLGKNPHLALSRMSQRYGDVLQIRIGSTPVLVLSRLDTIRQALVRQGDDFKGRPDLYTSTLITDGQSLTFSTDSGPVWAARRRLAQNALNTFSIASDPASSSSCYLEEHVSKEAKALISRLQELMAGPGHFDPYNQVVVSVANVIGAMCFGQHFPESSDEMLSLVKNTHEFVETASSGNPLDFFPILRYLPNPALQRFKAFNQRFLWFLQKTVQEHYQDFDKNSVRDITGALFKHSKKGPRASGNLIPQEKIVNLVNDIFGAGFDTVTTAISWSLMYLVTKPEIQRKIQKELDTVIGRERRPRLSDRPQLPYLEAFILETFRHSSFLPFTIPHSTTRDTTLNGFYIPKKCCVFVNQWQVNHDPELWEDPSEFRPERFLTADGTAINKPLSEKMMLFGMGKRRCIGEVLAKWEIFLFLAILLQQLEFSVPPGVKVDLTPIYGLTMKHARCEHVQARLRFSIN

[7] = Metabolic stability in rat liver microsomes assessed as intrinsic clearance; type: ADME, Microsome; details: read-out: CLH
[8] = Volume of distribution in ICR mouse at 2 mg/kg, iv; type: ADME, organism-based; details: in vivo
[9] = biological target: CYP2D6 (Homo sapiens, UniProt P10635); test: Inhibition of CYP2D6 (unknown origin) at 10 uM; type: ADME
[10] = Metabolic stability in rat liver microsomes assessed as half life; type: ADME, Microsome
[11] = Metabolic stability in mouse liver microsomes assessed as intrinsic clearance; type: ADME, Microsome; details: read-out: CLH
[12] = biological target: CYP3A4 (Homo sapiens, UniProt P08684); test: Inhibition of CYP3A4 (unknown origin) at 10 uM; type: ADME
[13] = Half life in ICR mouse at 2 mg/kg, iv; type: ADME, organism-based; details: in vivo
[14] = biological target: CYP2C9 (Homo sapiens, UniProt P11712); test: Inhibition of CYP2C9 (unknown origin) at 10 uM; type: ADME
[15] = AUC in ICR mouse at 10 mg/kg, po; type: ADME, organism-based; set-up: dose 10 mg/kg, route po; details: in vivo
[16] = biological target: CYP2C19 (Homo sapiens, UniProt P33261); test: Inhibition of CYP2C19 (unknown origin) at 10 uM; type: ADME
[17] = Metabolic stability in mouse liver microsomes assessed as half life; type: ADME, Microsome
[18] = biological target: T2, Receptor-interacting serine/threonine-protein kinase 3 (Homo sapiens, UniProt Q9Y572); test: Inhibition of RIPK3 (unknown origin) expressed in NIH3T3 cells assessed as inhibition of dimerizer-induced pMLKL level by Western blot analysis; type: cell-based
[19] = biological target: T3, Receptor-interacting serine/threonine-protein kinase 1 (Homo sapiens, UniProt Q13546); test: Binding affinity to RIPK1 (unknown origin) by ADP-GlO assay
T3 sequence (Q13546 whole entry): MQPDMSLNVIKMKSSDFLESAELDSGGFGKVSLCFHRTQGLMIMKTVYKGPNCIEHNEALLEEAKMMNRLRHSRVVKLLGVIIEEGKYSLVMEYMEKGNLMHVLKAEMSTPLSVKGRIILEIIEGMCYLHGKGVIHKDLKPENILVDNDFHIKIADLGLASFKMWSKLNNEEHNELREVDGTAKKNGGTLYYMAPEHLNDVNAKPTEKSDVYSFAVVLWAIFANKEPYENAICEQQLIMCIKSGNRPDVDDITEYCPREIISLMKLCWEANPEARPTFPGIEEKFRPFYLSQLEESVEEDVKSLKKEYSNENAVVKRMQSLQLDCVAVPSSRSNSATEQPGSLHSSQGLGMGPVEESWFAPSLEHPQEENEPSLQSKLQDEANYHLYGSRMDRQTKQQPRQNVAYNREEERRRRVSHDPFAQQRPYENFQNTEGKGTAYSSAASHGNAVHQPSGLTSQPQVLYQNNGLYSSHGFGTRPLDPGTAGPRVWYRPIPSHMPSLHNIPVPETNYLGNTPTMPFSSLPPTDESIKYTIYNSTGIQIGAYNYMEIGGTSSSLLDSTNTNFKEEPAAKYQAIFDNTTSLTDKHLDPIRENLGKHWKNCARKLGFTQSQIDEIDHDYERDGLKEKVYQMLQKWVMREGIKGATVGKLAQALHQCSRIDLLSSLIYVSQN

[20] = test system: Jurkat; test: Anti-necroptotic activity in FADD null human Jurkat cells assessed as inhibition of T/S/Z induced necroptosis by CellTiter-Glo Luminescent Cell Viability assay; type: functional, cell-based
[21] = test system: HT-29; test: Anti-necroptotic activity in human HT-29 cells assessed as inhibition of T/S/Z induced necroptosis by CellTiter-Glo Luminescent Cell Viability assay; type: functional, cell-based
[22] = biological target: T2, Receptor-interacting serine/threonine-protein kinase 3; test: Inhibition of human RIPK3 using MBP as substrate by [gamma33-ATP] based radiometric assay
[23] = AUC (last) in 2 hrs fasted CD-1 mouse at 3 mg/kg, po; type: ADME, organism-based; set-up: dose 3 mg/kg, route po; details: in vivo
[24] = Clearance in 2 hrs fasted CD-1 mouse at 3 mg/kg, po; type: ADME, organism-based; details: in vivo
[25] = Volume of distribution at steady state in 2 hrs fasted CD-1 mouse at 3 mg/kg, po; type: ADME, organism-based; details: in vivo
[26] = Oral bioavailability in 2 hrs fasted CD-1 mouse at 3 mg/kg; type: ADME, organism-based; details: in vivo
[27] = Clearance in C57BL/6 mouse plasma at 5 mg/kg, iv; type: ADME, organism-based
[28] = Volume of distribution in C57BL/6 mouse plasma at 5 mg/kg, iv; type: ADME, organism-based
[29] = Half life in C57BL/6 mouse plasma at 5 mg/kg, iv; type: ADME, organism-based
[30] = Anti-necroptotic activity in mouse BMDM cells assessed as inhibition of TNF/zVAD.fmk induced necroptosis pretreated for 30 mins measured after 19 to 21 hrs by CellTiter-Glo Luminescent Cell Viability assay

T2 sequence (Q9Y572 whole entry): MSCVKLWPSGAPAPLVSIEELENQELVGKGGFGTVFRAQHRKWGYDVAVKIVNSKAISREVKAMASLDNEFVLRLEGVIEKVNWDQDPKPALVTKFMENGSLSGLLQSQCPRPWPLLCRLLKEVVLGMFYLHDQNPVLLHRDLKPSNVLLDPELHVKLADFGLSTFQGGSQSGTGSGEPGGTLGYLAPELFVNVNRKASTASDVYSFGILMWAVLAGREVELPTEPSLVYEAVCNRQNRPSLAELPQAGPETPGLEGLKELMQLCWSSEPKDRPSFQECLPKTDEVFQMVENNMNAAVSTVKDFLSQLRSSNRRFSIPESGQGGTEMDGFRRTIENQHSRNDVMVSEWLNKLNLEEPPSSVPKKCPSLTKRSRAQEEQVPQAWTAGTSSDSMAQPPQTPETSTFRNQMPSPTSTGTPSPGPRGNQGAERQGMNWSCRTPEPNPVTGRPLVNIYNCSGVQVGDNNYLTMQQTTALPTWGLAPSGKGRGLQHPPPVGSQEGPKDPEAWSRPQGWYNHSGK
Receptor-interacting serine/threonine-protein kinase 2 (Homo sapiens), sequence (O43353 whole entry): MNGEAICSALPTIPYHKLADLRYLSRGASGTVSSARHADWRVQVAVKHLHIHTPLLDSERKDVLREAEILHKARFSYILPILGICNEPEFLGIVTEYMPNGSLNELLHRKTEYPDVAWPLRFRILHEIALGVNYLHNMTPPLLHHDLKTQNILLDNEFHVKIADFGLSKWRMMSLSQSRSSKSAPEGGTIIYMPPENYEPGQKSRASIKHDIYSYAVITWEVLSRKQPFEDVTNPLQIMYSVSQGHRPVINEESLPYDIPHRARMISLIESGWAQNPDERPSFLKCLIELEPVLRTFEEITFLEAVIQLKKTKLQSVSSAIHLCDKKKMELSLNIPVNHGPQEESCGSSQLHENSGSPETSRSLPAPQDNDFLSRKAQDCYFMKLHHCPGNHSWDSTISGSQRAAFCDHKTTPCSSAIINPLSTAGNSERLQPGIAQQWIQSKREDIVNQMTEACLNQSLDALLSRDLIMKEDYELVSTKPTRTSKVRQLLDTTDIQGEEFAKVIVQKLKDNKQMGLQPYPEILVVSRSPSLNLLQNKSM
Voltage-gated inwardly rectifying potassium channel KCNH2, sequence (Q12809 whole entry): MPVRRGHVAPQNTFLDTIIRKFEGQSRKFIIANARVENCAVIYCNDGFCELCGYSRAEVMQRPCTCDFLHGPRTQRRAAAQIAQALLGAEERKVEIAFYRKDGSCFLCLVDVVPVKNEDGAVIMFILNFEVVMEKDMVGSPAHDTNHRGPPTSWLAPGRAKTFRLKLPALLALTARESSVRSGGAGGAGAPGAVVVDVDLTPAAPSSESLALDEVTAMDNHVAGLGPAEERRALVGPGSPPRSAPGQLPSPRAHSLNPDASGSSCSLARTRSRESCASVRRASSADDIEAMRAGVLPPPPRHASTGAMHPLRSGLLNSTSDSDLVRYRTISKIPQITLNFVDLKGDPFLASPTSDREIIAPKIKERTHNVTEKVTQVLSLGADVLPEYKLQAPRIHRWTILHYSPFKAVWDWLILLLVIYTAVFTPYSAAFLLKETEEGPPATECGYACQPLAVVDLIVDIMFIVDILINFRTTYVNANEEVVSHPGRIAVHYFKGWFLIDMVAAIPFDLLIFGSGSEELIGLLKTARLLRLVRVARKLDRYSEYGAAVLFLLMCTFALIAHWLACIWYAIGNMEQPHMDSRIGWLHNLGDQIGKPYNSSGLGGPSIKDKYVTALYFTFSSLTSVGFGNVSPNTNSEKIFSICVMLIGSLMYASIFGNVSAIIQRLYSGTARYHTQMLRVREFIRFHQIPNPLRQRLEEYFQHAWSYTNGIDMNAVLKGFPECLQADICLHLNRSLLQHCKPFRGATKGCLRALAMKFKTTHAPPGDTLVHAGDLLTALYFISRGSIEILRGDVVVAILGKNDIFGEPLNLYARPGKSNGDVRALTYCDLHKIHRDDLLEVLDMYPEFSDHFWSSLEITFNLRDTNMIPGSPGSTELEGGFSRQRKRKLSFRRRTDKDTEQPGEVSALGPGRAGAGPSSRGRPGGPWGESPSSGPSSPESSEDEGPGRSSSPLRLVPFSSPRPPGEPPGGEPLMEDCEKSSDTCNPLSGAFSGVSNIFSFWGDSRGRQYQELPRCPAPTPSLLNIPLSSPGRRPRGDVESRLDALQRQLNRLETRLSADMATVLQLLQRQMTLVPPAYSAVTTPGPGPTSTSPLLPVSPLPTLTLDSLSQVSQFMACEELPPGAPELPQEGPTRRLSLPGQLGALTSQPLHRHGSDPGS
CYP2C19, sequence (P33261 whole entry): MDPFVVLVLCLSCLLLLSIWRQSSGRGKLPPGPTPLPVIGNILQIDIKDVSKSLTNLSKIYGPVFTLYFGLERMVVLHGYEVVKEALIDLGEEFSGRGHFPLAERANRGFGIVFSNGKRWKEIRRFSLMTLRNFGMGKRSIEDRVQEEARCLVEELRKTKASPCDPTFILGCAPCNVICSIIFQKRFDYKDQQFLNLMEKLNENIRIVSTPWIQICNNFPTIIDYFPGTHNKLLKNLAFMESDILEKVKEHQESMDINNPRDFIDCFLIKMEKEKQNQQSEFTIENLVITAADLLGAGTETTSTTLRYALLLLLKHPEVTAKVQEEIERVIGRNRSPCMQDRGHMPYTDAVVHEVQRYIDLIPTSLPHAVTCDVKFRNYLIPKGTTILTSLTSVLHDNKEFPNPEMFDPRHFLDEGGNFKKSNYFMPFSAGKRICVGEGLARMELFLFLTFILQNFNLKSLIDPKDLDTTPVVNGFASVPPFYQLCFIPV
CYP2C9, sequence (P11712 whole entry): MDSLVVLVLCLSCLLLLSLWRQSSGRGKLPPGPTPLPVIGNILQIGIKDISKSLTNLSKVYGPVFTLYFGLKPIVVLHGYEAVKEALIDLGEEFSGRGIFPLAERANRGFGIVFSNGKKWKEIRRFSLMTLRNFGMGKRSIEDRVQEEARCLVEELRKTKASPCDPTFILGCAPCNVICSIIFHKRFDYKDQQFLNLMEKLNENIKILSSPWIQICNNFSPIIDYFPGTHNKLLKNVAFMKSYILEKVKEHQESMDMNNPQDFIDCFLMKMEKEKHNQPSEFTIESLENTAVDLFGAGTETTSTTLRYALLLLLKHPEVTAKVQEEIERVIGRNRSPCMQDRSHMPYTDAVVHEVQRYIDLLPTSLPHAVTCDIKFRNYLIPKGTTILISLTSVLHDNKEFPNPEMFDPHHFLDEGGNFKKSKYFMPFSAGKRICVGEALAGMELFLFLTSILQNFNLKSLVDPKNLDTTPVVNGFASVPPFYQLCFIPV
CYP2D6, sequence (P10635 whole entry): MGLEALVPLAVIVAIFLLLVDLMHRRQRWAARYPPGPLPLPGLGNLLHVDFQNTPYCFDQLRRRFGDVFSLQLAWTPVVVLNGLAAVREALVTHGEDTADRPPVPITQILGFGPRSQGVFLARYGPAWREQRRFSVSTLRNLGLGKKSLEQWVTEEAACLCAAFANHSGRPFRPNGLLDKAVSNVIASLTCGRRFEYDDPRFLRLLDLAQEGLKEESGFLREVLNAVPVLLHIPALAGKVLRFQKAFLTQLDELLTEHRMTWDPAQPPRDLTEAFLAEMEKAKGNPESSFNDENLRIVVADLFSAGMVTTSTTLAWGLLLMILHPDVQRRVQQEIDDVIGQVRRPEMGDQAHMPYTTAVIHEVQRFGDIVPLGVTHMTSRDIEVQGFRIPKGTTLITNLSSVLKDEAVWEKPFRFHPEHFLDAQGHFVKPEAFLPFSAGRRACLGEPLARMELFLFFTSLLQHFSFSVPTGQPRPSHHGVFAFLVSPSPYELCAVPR
CYP3A4, sequence (P08684 whole entry): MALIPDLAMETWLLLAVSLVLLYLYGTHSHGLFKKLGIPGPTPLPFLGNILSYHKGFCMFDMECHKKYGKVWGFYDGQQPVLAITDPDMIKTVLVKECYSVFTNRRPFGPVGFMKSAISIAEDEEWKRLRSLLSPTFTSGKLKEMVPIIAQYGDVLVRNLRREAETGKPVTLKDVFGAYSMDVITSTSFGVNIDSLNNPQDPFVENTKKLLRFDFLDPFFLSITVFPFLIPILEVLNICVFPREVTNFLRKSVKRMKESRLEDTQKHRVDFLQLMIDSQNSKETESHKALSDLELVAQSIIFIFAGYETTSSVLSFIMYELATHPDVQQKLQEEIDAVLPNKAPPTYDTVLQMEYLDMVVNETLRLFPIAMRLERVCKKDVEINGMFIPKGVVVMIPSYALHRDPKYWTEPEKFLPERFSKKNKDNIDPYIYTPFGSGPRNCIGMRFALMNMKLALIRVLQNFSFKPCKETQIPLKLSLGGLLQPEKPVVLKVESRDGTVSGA

SMILES: CN(c1ccc(NC(=O)Nc2ccc(OC(F)(F)F)cc2)cc1)c1ccnc(Nc2cccc(S(N)(=O)=O)c2)n1 [GW806742X]
IC50 [2]: < 50 nM | EC50 [3]: 1850 nM

SMILES: N#Cc1c(Oc2ccc(F)c(NC(=O)Cc3cccc(C(F)(F)F)c3)c2)ccc2nc(NC(=O)C3CC3)sc12
Kd [19]: 105 nM

SMILES: COc1nccnc1NS(=O)(=O)c1ccc(NC(=O)/C=C/c2ccc([N+](=O)[O-])s2)cc1
IC50 [20]: < 1000 nM | IC50 [21]: < 1000 nM and 124 nM

SMILES: CN1C(=O)[C@@H](NC(=O)c2nc(Cc3ccccc3)n[nH]2)COc2ccc(C#CC3CC3)cc21
AUClast [23]: 15000 ng·h/mL | CL/F [24]: 3.54 mL/min/kg | Vdss [25]: 0.902 L/kg | bioavailability [26]: 99%

SMILES: COc1cc2c(cn1)N(C)C(=O)[C@@H](NC(=O)c1nc3n(n1)[C@H](c1ccccc1)CC3)CC2
clearance [27]: 49.2 mL/min/kg | Vd [28]: 1.84 L/kg | half-life [29]: 31.8 min

SMILES: CC(C)(C)C(=O)N1N=CC[C@H]1c1ccccc1
IC50 [30]: 3 nM

Now from value to compound, other results behind:

inhibition [1]: 84%
SMILES: Cc1cc(-c2cnc(N)c3c(-c4ccc5scnc5c4)csc23)n(C)n1

clearance [5]: 33 mL/min/kg | inhibition at 10 µM [6]: < 10% | CLint scaled [7]: 67 mL/min/kg | Vd [8]: 4.4 L/kg | inhibition at 10 µM [9]: < 10% | half-life [10]: 36 min | CLint scaled [11]: 212 mL/min/kg | inhibition at 10 µM [12]: < 10% | half-life [13]: 90 min | inhibition at 10 µM [14]: < 10% | AUC [15]: 8200 ng·h/mL | inhibition at 10 µM [16]: < 10% | half-life [17]: 26 min
SMILES: Cl.O=S1(=O)C=C(C2CC2)c2cc3nccc(Nc4ccc5scnc5c4)c3cc21
IC50 [4]: > 10000 nM

EC50 [18]: 73.6 nM
SMILES: Cc1ccc(O)cc1Nc1ccnc2cc(-c3ccccn3)ccc12

inhibition [1]: 76%
SMILES: CC(C)S(=O)(=O)c1ccc2nccc(Nc3ccc4scnc4c3)c2c1

EC50 [22]: 20.8 nM
SMILES: Cc1ccc(Oc2ccnc3cc(-c4cnn(C5CCNCC5)c4)ccc23)cc1
